Data as given in patent US20190008848A1, “IDENTIFICATION OF ADDITIONAL ANTI-PERSISTER ACTIVITY AGAINST BORRELIA BURGDORFERI FROM AN FDA DRUG LIBRARY” (THE JOHNS HOPKINS UNIVERSITY, priority 2015, published 2019).
Structures can show the parent of a compound that is named as a salt. Where two headings read alike, the source gives them in different places.

Tested on: stationary phase B. burgdorferi
Experiment: SYBR Green I/PI viability assay (drug library screen, plate reader)
Details: for viability at 50 µM: Borreliella burgdorferi, 168 h; for activity against stationary phase B. burgdorferi (in words): screen at 50 μM
Protocol: Borrelia burgdorferi strain B31 (ATCC35210) was received from the […] (Manassas, Va., USA) and was grown in BSK-H medium (HiMedia Laboratories, Mumbai, India) and 6% rabbit serum (Sigma Aldrich, St. Louis, Mo., USA). The culture was filtered and sterilized using a […] and incubated in capped sterile 50 mL conical tubes (BD Biosciences, CA, USA) at 33° C. for 7 days without antibiotics until the culture reached stationary phase.
The cultures were examined using a Nikon Eclipse E800 microscope with differential interference contrast and epifluorescent illumination. The pictures were captured using a SPOT slider color camera. A SYBR Green I/PI assay was used to assess the viability of the bacterial sample using the ratio of live to dead B. burgdorferi (measured with green and red fluorescence, respectively) as measured by a plate reader.
Briefly, prediluted drug stock (10 μL) was added to 7 day old stationary phase B. burgdorferi culture (90 μL) to achieve a 50 μM final drug concentration per well. The plates were then incubated at 33° C. for 7 days at which point the SYBR/PI rapid viability assay was performed in a fluorescence plate reader to obtain the green-red fluorescence ratio.

[1] = read-out: Residual viable cells (SYBR/PI), Table 3, drugs 50 μM, 7-day old stationary phase cells treated for 7 days
[2] = Table 3, drugs 50 μM, 7-day old stationary phase cells treated for 7 days
[3] = read-out: Residual viable cells (SYBR/PI)
[4] = read-out: Residual viable cells (SYBR Green/PI), Table 1, drugs 50 μM, 7 day old stationary phase cells treated for 7 days

SMILES: Cc1cn([C@H]2C=C[C@@H](CO)O2)c(=O)[nH]c1=O [2′,3′-Didehydro-3′-Deoxythymidine]
- viability at 50 µM [1]: 65%

SMILES: O=C(Nc1ccc(Cl)cc1)Nc1ccc(Cl)c(Cl)c1 [3,4,4′-Trichlorocarbanilide]
- Residual viable cells (SYBR/PI) [2]: 45%

SMILES: Nc1ccc(C(=O)O)c(O)c1 [4-Aminosalicylic acid]
- viability at 50 µM [3]: 66%

SMILES: NC12CC3CC(CC(C3)C1)C2 [Amantadine hydrochloride]
- Residual viable cells (SYBR/PI) (Borrelia burgdorferi, 7 days, 50 μM): 69%
- viability at 50 µM [1]: 65%

SMILES: NCC[C@H](O)C(=O)N[C@@H]1C[C@H](N)[C@@H](O[C@H]2O[C@H](CN)[C@@H](O)[C@H](O)[C@H]2O)[C@H](O)[C@H]1O[C@H]1O[C@H](CO)[C@@H](O)[C@H](N)[C@H]1O [Amikacin]
- viability at 50 µM [1]: 57%

SMILES: CC1(C)S[C@@H]2[C@H](NC(=O)[C@H](N)c3ccccc3)C(=O)N2[C@H]1C(=O)O [Ampicillin]
- viability at 50 µM [1]: 64%

SMILES: COc1ccc(C[C@H]2NC[C@H](O)[C@H]2OC(C)=O)cc1 [Anisomycin]
- Residual viable cells (SYBR/PI) [2]: 68%

SMILES: C[C@H]1[C@H](OC(=O)CCC(=O)O)O[C@@H]2O[C@@]3(C)CC[C@H]4[C@H](C)CC[C@@H]1[C@@]24OO3 [Artesunate]
- viability at 50 µM [1]: 58%

SMILES: O=C(Cn1ccnc1[N+](=O)[O-])NCc1ccccc1 [Benznidazole]
- viability at 50 µM [1]: 53%

SMILES: O=C(Nc1ccc(C(=O)O)c(O)c1)c1ccccc1 [Benzoylpas, 4-Benzamido salicylic acid, calcium salt]
- viability at 50 µM [4]: 55%
- viability at 50 µM [1]: 55%

SMILES: O=C(O)CCNC(=O)c1ccccc1 [Betamipron (n-benzoyl-b-alanine), n-benzoyl-b-alanine]
- viability at 50 µM [1]: 68%

SMILES: S=C=Nc1ccc(N=C=S)cc1 [Bitoscanate]
- viability at 50 µM (read-out: Residual viable cells (SYBR Green/PI)): 46%
- viability at 50 µM [3]: 46%

SMILES: Clc1ccc(CCC(Cn2ccnc2)Sc2c(Cl)cccc2Cl)cc1 (centres unmarked) [Butoconazole nitrate]
- viability at 50 µM [1]: 74%

SMILES: CCCCCl [Butyl chloride (1-Chlorobutane), 1-Chlorobutane]
- viability at 50 µM [3]: 41%
- activity against stationary phase B. burgdorferi (in words) (7 days): very high activities

SMILES: COC(=O)N/N=C/c1c[n+]([O-])c2ccccc2[n+]1[O-] [Carbadox]
- viability at 50 µM [1]: 69%

SMILES: NS(=O)(=O)c1ccc(C(=O)O)cc1 [Carzenide (4-Carboxybenzenesulfonamide), 4-Carboxybenzenesulfonamide]
- viability at 50 µM [1]: 59%

SMILES: NC(=O)c1cc[n+](CC2=C(C(=O)O)N3C(=O)[C@@H](NC(=O)[C@@H](c4ccccc4)S(=O)(=O)[O-])[C@H]3SC2)cc1 [Cefsulodin]
- viability at 50 µM [4]: 60%
- viability at 50 µM [1]: 60%

SMILES: CC(=O)OCC1=C(C(=O)O)N2C(=O)[C@@H](NC(=O)CCC[C@@H](N)C(=O)O)[C@H]2SC1 [Cephalosporin C]
- Residual viable cells (SYBR/PI) [2]: 58%

SMILES: Cc1cc(C2CCCCC2)n(O)c(=O)c1 [Ciclopirox olamine]
- viability at 50 µM [1]: 66%

SMILES: NC1CCN(c2c(F)cc3c(=O)c(C(=O)O)cn(C4CC4)c3c2Cl)C1 (centres unmarked) [Clinafloxacin]
- viability at 50 µM [1]: 60%

SMILES: CC(C)(C)CC(C)(C)c1ccc(O)c(Cc2ccc(Cl)cc2Cl)c1 [Clofoctol]
- viability at 50 µM [1]: 73%

SMILES: Cc1nc(C)c(Cl)c(O)c1Cl [Clopidol]
- viability at 50 µM [1]: 57%

SMILES: Nc1cc(C(Cl)=C(Cl)Cl)c(S(N)(=O)=O)cc1S(N)(=O)=O [Clorsulon]
- viability at 50 µM [1]: 71%

SMILES: Cc1cc(C(C#N)c2ccc(Cl)cc2)c(Cl)cc1NC(=O)c1cc(I)cc(I)c1O (centres unmarked) [Closantel]
- viability at 50 µM [1]: 56%

SMILES: Clc1ccccc1C(c1ccccc1)(c1ccccc1)n1ccnc1 [Clotrimazole]
- viability at 50 µM [1]: 68%

SMILES: Oc1ccc(Cl)c2cccnc12 [Cloxyquin (5-chloro-8-hydroxy-quinoline), 5-chloro-8-hydroxy-quinoline]
- viability at 50 µM [1]: 60%

SMILES: N#CCC(=O)NN [Cyacetacide]
- viability at 50 µM [4]: 61%
- viability at 50 µM [1]: 61%

SMILES: NC[C@@H]1CC[C@@H](N)[C@@H](O[C@H]2[C@H](O)[C@@H](O[C@H]3O[C@H](CO)[C@@H](O)[C@H](N)[C@H]3O)[C@H](N)C[C@@H]2N)O1 [Dibekacin]
- viability at 50 µM [1]: 70%

SMILES: N#CC(c1ccc(Cl)cc1)c1c(Cl)cc(-n2ncc(=O)[nH]c2=O)cc1Cl (centres unmarked) [Diclazuril]
- viability at 50 µM [1]: 63%

SMILES: O=c1[nH]cnc2c1ncn2[C@H]1CC[C@@H](CO)O1 [Didanosine, 2′-3′-dideoxyinosine]
- viability at 50 µM [4]: 61%
- viability at 50 µM [1]: 61%

SMILES: CCCCCCCCCCCCCCCCCCCCCCO [Docosanol]
- viability at 50 µM [1]: 55%

SMILES: O=C1Nc2ccc(Cl)cc2[C@@](C#CC2CC2)(C(F)(F)F)O1 [Efavirenz]
- viability at 50 µM [1]: 60%

SMILES: CCOc1ccc2nc3cc(N)ccc3c(N)c2c1 [Ethacridine lactate]
- viability at 50 µM [4]: 48%
- viability at 50 µM [1]: 48%

SMILES: CC(=O)OCC(CCn1cnc2cnc(N)nc21)COC(C)=O [Famciclovir]
- viability at 50 µM [1]: 68%

SMILES: CN1CCN(c2c(F)cc3c(=O)c(C(=O)O)cn(CCF)c3c2F)CC1 [Fleroxacin]
- viability at 50 µM [1]: 73%

SMILES: CS(=O)(=O)c1ccc([C@@H](O)[C@@H](CF)NC(=O)C(Cl)Cl)cc1 [Florfenicol]
- viability at 50 µM [1]: 53%

SMILES: O=c1[nH]c(=O)n([C@H]2C[C@H](O)[C@@H](CO)O2)cc1F [Floxuridine, 5-fluorodeoxyuridine]
- viability at 50 µM [4]: 61%
- viability at 50 µM [1]: 61%

SMILES: COC(=O)Nc1nc2cc(C(=O)c3ccc(F)cc3)ccc2[nH]1 [Flubendazole]
- viability at 50 µM [4]: 54%
- viability at 50 µM [1]: 54%

SMILES: Nc1nc(O)c2ncn(COC(CO)CO)c2n1 [Ganciclovir]
- viability at 50 µM [4]: 53%
- viability at 50 µM [1]: 53%

SMILES: COC1=CC(=O)C[C@@H](C)[C@]12Oc1c(Cl)c(OC)cc(OC)c1C2=O [Griseofulvin]
- viability at 50 µM [4]: 63%
- viability at 50 µM [1]: 63%

SMILES: CCN(CC)CCNc1ccc(CO)c2sc3ccccc3c(=O)c12 [Hycanthone]
- viability at 50 µM [4]: 45%
- viability at 50 µM [1]: 45%

SMILES: CC(C)Cn1cnc2c(N)nc3ccccc3c21 [Imiquimod]
- viability at 50 µM [3]: 64%

SMILES: Nc1ccn([C@@H]2CS[C@H](CO)O2)c(=O)n1 [Lamivudine]
- viability at 50 µM [4]: 58%
- viability at 50 µM [1]: 58%

SMILES: COC(=O)c1ccc(O)c2nc3c(C=O)c(O)cc(O)c3nc12 [Lomofungin]
- viability at 50 µM [1]: 58%

SMILES: C=N[C@@H](C(=O)N[C@@H]1C(=O)N2[C@@H]1SC(C)(C)[C@@H]2C(=O)O)c1ccccc1 [Metampicillin]
- viability at 50 µM [1]: 57%

SMILES: COP(=O)(OC)C(O)C(Cl)(Cl)Cl (centres unmarked) [Metrifonate]
- viability at 50 µM [3]: 51%

SMILES: CCC(=O)O[C@@H]1CC(=O)O[C@H](C)C/C=C/C=C/[C@H](O)[C@H](C)C[C@H](CC=O)[C@H](O[C@@H]2O[C@H](C)[C@@H](O[C@H]3C[C@@](C)(O)[C@@H](OC(=O)CC)[C@H](C)O3)[C@H](N(C)C)[C@H]2O)[C@H]1OC [Midecamycin]
- viability at 50 µM [1]: 54%

SMILES: Cc1c(O)cccc1C(=O)N[C@@H](CSc1ccccc1)[C@H](O)CN1C[C@H]2CCCC[C@H]2C[C@H]1C(=O)NC(C)(C)C [Nelfinavir mesylate]
- viability at 50 µM [1]: 66%

SMILES: Cc1ccnc2c1NC(=O)c1cccnc1N2C1CC1 [Nevirapine]
- viability at 50 µM [4]: 51%
- viability at 50 µM [1]: 51%
- activity against stationary phase B. burgdorferi (in words) (7 days): good activity

SMILES: O=C(N/N=C/c1ccc([N+](=O)[O-])o1)c1cc([N+](=O)[O-])cc([N+](=O)[O-])c1O [Nifursol]
- viability at 50 µM [1]: 51%

SMILES: O=[N+]([O-])c1ccc(O)c2ncccc12 [Nitroxoline (8-hydroxy 5-nitroquinoline), 8-hydroxy 5-nitroquinoline]
- viability at 50 µM [1]: 66%

SMILES: C[C@@H]1[C@H](O)[C@@H](C)/C=C/C=C/CC/C=C/C=C/C=C/C=C/C(O[C@H]2O[C@H](C)[C@@H](O)[C@H](N)[C@@H]2O)CC2O[C@](O)(CC(O)C(O)CCC(O)CC(O)CC(O)CC(=O)O[C@H]1C)CC(O)C2C(=O)O (some centres unmarked) [Nystatin]
- Residual viable cells (SYBR Green/PI) (Table 1, drugs 50 μM, 7 day old stationary phase cells treated for 7 days): 64%
- Residual viable cells (SYBR/PI) [2]: 64%
- activity against stationary phase B. burgdorferi (in words) (7 days): reasonable activity

SMILES: COC(=O)Nc1nc2ccc([S+]([O-])c3ccccc3)cc2[nH]1 (centres unmarked) [Oxfendazole]
- viability at 50 µM [4]: 54%
- viability at 50 µM [1]: 54%

SMILES: CCCOc1ccc2nc(NC(=O)OC)[nH]c2c1 [Oxibendazole]
- viability at 50 µM [4]: 51%
- viability at 50 µM [1]: 51%

SMILES: Clc1ccc(CO/N=C(\Cn2ccnc2)c2ccc(Cl)cc2Cl)c(Cl)c1 [Oxiconazole nitrate]
- viability at 50 µM [4]: 62%
- viability at 50 µM [1]: 62%

SMILES: C[C@H]1COc2c(C3(N)CC3)c(F)cc3c(=O)c(C(=O)O)cn1c23 [Pazufloxacin]
- viability at 50 µM [1]: 69%

SMILES: [I-].[K+] [Potassium iodide]
- Residual viable cells (SYBR/PI) [2]: 65%

SMILES: CCCc1cc(C(N)=S)ccn1 [Protionamide]
- viability at 50 µM [1]: 63%

SMILES: NC(=O)c1ncn([C@@H]2O[C@H](CO)[C@@H](O)[C@H]2O)n1 [Ribavirin]
- viability at 50 µM [4]: 63%
- viability at 50 µM [1]: 63%

SMILES: CCC[S+]([O-])c1ccc2[nH]c(NC(=O)OC)nc2c1 (centres unmarked) [Ricobendazole (Albendazole oxide), Albendazole oxide]
- viability at 50 µM [3]: 57%

SMILES: CO[C@H]1/C=C/O[C@@]2(C)Oc3c(C)c(O)c4c(O)c(c5c(nc6cc(C)ccn65)c4c3C2=O)NC(=O)/C(C)=C\C=C\[C@H](C)[C@H](O)[C@@H](C)[C@@H](O)[C@@H](C)[C@H](OC(C)=O)[C@@H]1C [Rifaximin]
- viability at 50 µM [1]: 51%
